Data published in the Kinase Knowledgebase extract (Sharma et al. 2016).

Columns and labels:
[1] = molecular target: EGFR (human) (UniProt P00533); conditions: hn5
[2] = molecular target: EGFR (human) (UniProt P00533)

Chain of EGFR (human) (P00533 whole entry, looked up): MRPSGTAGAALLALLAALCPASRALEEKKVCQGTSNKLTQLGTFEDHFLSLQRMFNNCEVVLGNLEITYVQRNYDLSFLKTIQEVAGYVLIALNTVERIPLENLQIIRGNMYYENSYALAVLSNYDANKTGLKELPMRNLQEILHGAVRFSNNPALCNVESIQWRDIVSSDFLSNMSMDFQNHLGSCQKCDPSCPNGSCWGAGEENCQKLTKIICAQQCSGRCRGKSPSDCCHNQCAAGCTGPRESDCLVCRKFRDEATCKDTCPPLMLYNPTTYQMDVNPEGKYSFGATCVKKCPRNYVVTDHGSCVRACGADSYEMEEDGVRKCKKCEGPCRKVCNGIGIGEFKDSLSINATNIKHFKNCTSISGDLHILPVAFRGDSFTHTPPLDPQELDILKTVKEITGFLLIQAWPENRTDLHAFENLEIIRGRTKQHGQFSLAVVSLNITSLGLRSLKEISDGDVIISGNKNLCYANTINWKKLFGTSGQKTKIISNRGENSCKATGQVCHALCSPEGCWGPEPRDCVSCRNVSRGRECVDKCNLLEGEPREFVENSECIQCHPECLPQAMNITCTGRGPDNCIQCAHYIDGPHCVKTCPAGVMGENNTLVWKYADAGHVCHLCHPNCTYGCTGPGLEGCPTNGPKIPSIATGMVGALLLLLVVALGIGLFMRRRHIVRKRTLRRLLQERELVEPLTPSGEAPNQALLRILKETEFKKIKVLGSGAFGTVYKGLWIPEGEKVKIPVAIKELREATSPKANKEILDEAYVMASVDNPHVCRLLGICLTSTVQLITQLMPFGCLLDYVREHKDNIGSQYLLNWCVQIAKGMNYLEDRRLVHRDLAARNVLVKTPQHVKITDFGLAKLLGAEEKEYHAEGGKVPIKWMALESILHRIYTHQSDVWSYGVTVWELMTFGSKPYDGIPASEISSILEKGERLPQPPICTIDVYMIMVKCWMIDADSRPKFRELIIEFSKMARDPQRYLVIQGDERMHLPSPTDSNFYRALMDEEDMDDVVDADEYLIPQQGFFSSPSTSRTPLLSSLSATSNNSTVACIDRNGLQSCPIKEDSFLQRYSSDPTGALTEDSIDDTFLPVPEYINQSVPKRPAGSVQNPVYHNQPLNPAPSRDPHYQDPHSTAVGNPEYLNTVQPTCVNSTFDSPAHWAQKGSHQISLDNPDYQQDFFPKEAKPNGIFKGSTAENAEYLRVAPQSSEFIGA

IC50 [1]	IC50 [2]	Compound
300 nM	36 nM	CN(CCO)c1cc2c(Nc3ccc4c(cnn4Cc4ccccc4)c3)ncnc2cn1
1130 nM	29 nM	CS(=O)(=O)CCNCc1ccc(-c2ccc3ncnc(Nc4ccc(S(=O)(=O)c5ccccc5)cc4)c3c2)o1
430 nM	25 nM	CS(=O)(=O)CCNCc1ccc(-c2cc3c(Nc4ccc(OCc5ccccc5)cc4)ncnc3cn2)o1
830 nM	26 nM	Cc1nnc(-c2ccc3ncnc(Nc4ccc5c(cnn5Cc5cccc(F)c5)c4)c3c2)o1
